Experimental data taken from patent publication US12485108B2, “Method for treating fatty liver disease and/or steatohepatitis” (BEIJING TIDE PHARMACEUTICAL CO., LTD., priority 2019, dated 2025).

Assays:
[1] = test system: High Fat+Streptozotocin Induced Mouse Model; experiment: High fat+streptozotocin induced mouse steatohepatitis model; format: in vivo, mice; settings: for Inhibition Rate (%) on Ballooning Degeneration of Liver Cells: H&E staining score of liver vs model group; for Inhibition Rate (%) on Ballooning Degeneration of Liver Cells / Inhibition Rate (%) on Collagen Accumulation in Liver Tissue / Body Weight / Liver Weight / Liver Weight/Body Weight / Inhibition Rate (%) on Fatty Degeneration: oral once a day for 21 days, compound C 100 mg/kg, telmisartan 50 mg/kg; for Inhibition Rate (%) on Collagen Accumulation in Liver Tissue: Picrosirius red staining score of liver vs model group; for Body Weight / Liver Weight / Liver Weight/Body Weight: at the end of the test; for Body Weight: after fasting; for Inhibition Rate (%) on Fatty Degeneration: oil red O staining score of liver vs model group
Experimental: Pregnant mice were purchased from Shanghai Lingchang Laboratory Animal Co., Ltd. Thirty 2-day-old newborn male mice were chosen for the test. Each mouse was injected with 200 μg of streptozotocin (STZ, purchased from Sigma) and fed a high-fat diet for 2 weeks from 4-week-old to induce a steatohepatitis model. Meanwhile, another ten mice were selected as a normal group where they were fed a normal diet without injection of STZ. After 2 weeks of high-fat diet feeding, the mice were divided into 3 groups according to their body weights and fasting blood glucose levels: a model group, a compound C administration group, and a telmisartan (purchased from TOKYO CHEMICAL) administration group. Each group underwent once-a-day oral administration of the corresponding substance for 21 consecutive days. The body weights of mice were recorded each day (see FIG. 1A and FIG. 1B), and after the final administration, the body weights of mice after fasting were recorded (see Table 2 and FIG. 2A and FIG. 2B). The animals were euthanized, and their liver tissues were harvested. The liver tissues were weighed and subjected to histologic scoring (blind assessment) in respect of ballooning degeneration, fatty degeneration, and collagen accumulation, etc. Histologic changes were assessed by hematoxylin and eosin (H&E) staining, oil red O staining and Picrosirius red staining of the liver tissues, where the H&E staining was used for assessing the ballooning degeneration of liver cells, the oil red O staining was used for reflecting the fatty degeneration of liver and the Picrosirius red staining was used for assessing collagen accumulation. Relevant scores are shown in FIG. 3A, FIG. 3B and FIG. 3C, and inhibition rates of various histologic changes are shown in Table 3.
Scoring criteria: fatty degeneration is scored on a scale from 0 to 3, where lesion area <5% is scored as 0, lesion area of 5-33% is scored as 1, lesion area of 33-66% is scored as 2 and lesion area >66% is scored as 3. Ballooning degeneration of liver cells is scored on a scale from 0 to 2, where no ballooning degeneration is scored as 0, little ballooning degeneration is a scored as 1, and ballooning degeneration of most cells or significant ballooning degeneration is scored as 2. Collagen accumulation is scored on a scale from 0 to 4 with reference to the scoring criteria reported in Brunt E M, et al., Hepatology (2011).
The inhibition rates (%) on fatty degeneration, ballooning degeneration of liver cells and collagen accumulation in liver tissue shown in Table 3 were calculated according to the following formulae, respectively (the normal group was scored as 0): Inhibition rate (%) on fatty degeneration=100%×(the average score of the model group−the average score of the administration group)/(the average score of the model group−the average score of the normal group) Inhibition rate (%) on ballooning degeneration of liver cells=100%×(the average score of the model group−the average score of the administration group)/(the average score of the model group−the average score of the normal group) Inhibition rate (%) on collagen accumulation in liver tissue=100%×(the average score of the model group−the average score of the administration group)/(the average score of the model group−the average score of the normal group)

[2] = test system: High Fat+High Cholesterol+High Sugar+Carbon Tetrachloride Induced Mouse Model; experiment: High fat+high cholesterol+high sugar+carbon tetrachloride induced mouse steatohepatitis model; format: in vivo, mice; settings: three 21-day courses; for Collagen accumulation in liver tissue: Picrosirius red staining; for Collagen accumulation in liver tissue / Serum cholesterol level / Serum low density lipoprotein level: oral once a day, compound C 100 mg/kg, telmisartan 10 mg/kg; for Serum cholesterol level / Serum low density lipoprotein level: vs model group (compound C p<0.05)
Experimental: Mice which were 8-10 weeks old (purchased from Jiangsu GemPharmatech Co., Ltd.) were fed a western diet (a high fat+high cholesterol feed, purchased from Beijing Hfk Bioscience Co., Ltd.) and a high-sugar solution (23.1 g/L D-fructose and 18.9 g/L D-glucose) and injected intraperitoneally with carbon tetrachloride to induce a steatohepatitis model. Starting from day 7 (D7) of western diet+high-sugar solution feeding, the mice were injected intraperitoneally with 0.05 ml of 20% carbon tetrachloride once a week, for 12 weeks. Animals were divided into groups (8 animals in each group) on day 28: a model group (administrated with a vehicle composed of PEG400, Tween-80 and deionized water), a compound C (100 mg/kg) administration group, and a telmisartan (10 mg/kg) administration group. Starting from day 28, the vehicle, compound C and telmisartan were each administered orally once a day, for three 21-day treatment courses at one-week intervals. Meanwhile, a normal control group was set wherein the mice were fed a normal diet combined with normal drinking water. Peripheral blood was taken from animals 2 h after the final administration, and serum was isolated. The animals were euthanized, and their liver tissues were harvested. The serum was mainly used to measure the levels of cholesterol and low density lipoprotein. The liver tissues were stained with Picrosirius red to assess collagen accumulation, and the ratio of endothelial cells to macrophages was measured by flow cytometry to reflect liver damage.

[3] = test system: High Fat+High Cholesterol+Carbon Tetrachloride Induced Mouse Model; experiment: High fat+high cholesterol+carbon tetrachloride induced mouse steatohepatitis model; format: in vivo, mice; settings: oral once a day, three 21-day courses, compound C 100 mg/kg, telmisartan 10 mg/kg; for Collagen accumulation in liver tissue: Picrosirius red staining, vs model group (compound C p<0.01; telmisartan p>0.05); for Serum cholesterol level / Serum low density lipoprotein level: vs model group (compound C p<0.01)
Text: Mice which were 8-10 weeks old (purchased from Jiangsu GemPharmatech Co., Ltd.) were fed a western diet (a high fat+high cholesterol feed, purchased from Beijing Hfk Bioscience Co., Ltd.) and injected intraperitoneally with carbon tetrachloride to induce a steatohepatitis model. Experimental animals were randomly divided into 3 groups (8 animals in each group) according to their body weights: a model group (administrated with a vehicle composed of PEG400, Tween-80 and deionized water), a compound C (100 mg/kg) administration group, and a telmisartan (10 mg/kg) administration group. Starting from day 5 (D5) of western diet feeding, each group underwent an intraperitoneal injection of 0.05 ml of 20% CCl4 once a week, for 12 weeks. Starting from day 21, the vehicle, compound C and telmisartan were each administered orally once a day, for three 21-day treatment courses at one-week intervals. Meanwhile, a normal control group was set wherein the mice were fed a normal diet combined with normal drinking water. Peripheral blood was taken from animals 2 h after the final administration, and serum was isolated. The animals were euthanized and their liver tissues were harvested. The serum was mainly used to measure the levels of cholesterol and low density lipoprotein. The liver tissues were stained with Picrosirius red to assess collagen accumulation.

[4] = test system: Carbon Tetrachloride Induced Mouse Model; experiment: Carbon tetrachloride induced mouse model; format: in vivo, mice; settings: Picrosirius red staining
Experimental: Mice which were 8-10 weeks old (purchased from Jiangsu GemPharmatech Co., Ltd.) were randomly divided into 4 groups (8 animals in each group) according to their body weights: a model group (administrated with a vehicle, 0.5% CMC-Na), a compound C (300 mg/kg) administration group, a compound C (100 mg/kg) administration group, and a telmisartan (10 mg/kg) administration group. Each mouse was injected intraperitoneally with 0.05 ml of 40% CCl4 twice a week, for 6 consecutive weeks. Starting from day 15, each group underwent an intragastric administration of the corresponding substance once a day, for 28 consecutive days. Meanwhile, a normal control group was set wherein the mice in this group were fed a normal diet combined with normal drinking water. Animals were euthanized 2 h after the final administration, and their liver tissues were harvested and stained with Picrosirius red to assess collagen accumulation.

[5] = test system: High Fat+High Cholesterol Diet and N-Diethylnitrosamine Induced Rat Model; experiment: High fat+high cholesterol diet and N-diethylnitrosamine induced rat model, NAS scoring; format: in vivo, SD rats; settings: compound C administration groups (50 mg/kg and 100 mg/kg), intragastric once a day for 49 days; H&E staining; model group score 6
Experimental: Pregnant SD rats were purchased from Shanghai Jihui Laboratory Animal Care Co., Ltd, and neonatal rats obtained therefrom were used in this study. Forty male neonatal rats were chosen to receive a single injection of N-diethylnitrosamine (DEN, purchased from Sigma) at 2 weeks of age. After the neonatal rats were fed rat milk for 2 weeks, they were randomly divided into 4 groups (10 animals in each group) according to their body weights: a model group (0.5% CMC-Na), a compound C (50 mg/kg) administration group, a compound C (100 mg/kg) administration group, and an obeticholic acid (OCA, purchased from WuXi AppTec (Wuhan), 30 mg/kg) administration group. Each neonatal rat was fed a western diet (a high fat+high cholesterol feed, purchased from Trophic Animal Feed High-Tech Co., Ltd, China, Su Si certificate (2014) No. 06092) for 8 weeks. Meanwhile, another 8 male neonatal rats were selected as a normal group, which were fed rat milk for 4 weeks and then fed a normal diet instead of the high fat+high cholesterol diet. Starting from day 8 of high fat+high cholesterol diet feeding, the vehicle (0.5% CMC-Na), compound C and OCA were each administrated intragastrically once a day, for 49 consecutive days.
Animals were euthanized 2 h after the final administration, and their liver tissues were harvested. […]

Cn1c(C(=O)N2CC(F)(F)C2)cc2ccc(-c3nccc(Nc4ccc(-c5cn[nH]c5)cc4)n3)cc21 [Compound C]
Therapeutic effect (fatty degeneration, ballooning degeneration, collagen accumulation of liver tissue) ([1]; 100 mg/kg oral once a day for 21 days): significant therapeutic effects | Inhibition Rate (%) on Ballooning Degeneration of Liver Cells [1]: 60.00% | Inhibition Rate (%) on Collagen Accumulation in Liver Tissue [1]: 44.44% | Body Weight [1]: 17.1 ± 0.59 g | Liver Weight [1]: 872.3 ± 17.91 mg | Liver Weight/Body Weight [1]: 5.1 ± 0.15% | Inhibition Rate (%) on Fatty Degeneration [1]: 66.67% | Collagen accumulation in liver tissue ([2]; vs model group (p<0.01)): significantly reduced | Proportion of endothelial cells in liver tissue ([2]; flow cytometry, vs model group (p<0.01), compound C 100 mg/kg oral once a day): increased | Proportion of macrophages in liver tissue ([2]; flow cytometry, vs model group, compound C 100 mg/kg oral once a day): reduced at a certain extent | Serum cholesterol level [2]: significantly reduced | Serum low density lipoprotein level [2]: significantly reduced | Collagen accumulation in liver tissue [3]: significantly reduced | Serum cholesterol level [3]: significantly reduced | Serum low density lipoprotein level [3]: significantly reduced | Collagen accumulation in liver tissue ([4]; 100 mg/kg intragastric once a day for 28 days, vs model group (p<0.001)): significantly reduced | Collagen accumulation in liver tissue ([4]; 300 mg/kg intragastric once a day for 28 days, vs model group (p<0.001)): significantly reduced | NAS score of liver tissue [5]: about 4.2

CCCc1nc2c(C)cc(-c3nc4ccccc4n3C)cc2n1Cc1ccc(-c2ccccc2C(=O)O)cc1 [Telmisartan, telmisartan, reference compound]
Inhibition Rate (%) on Ballooning Degeneration of Liver Cells [1]: 11.12% | Inhibition Rate (%) on Collagen Accumulation in Liver Tissue [1]: 38.27% | Body Weight [1]: 15.7 ± 0.84 g | Liver Weight [1]: 760.1 ± 48.78 mg | Liver Weight/Body Weight [1]: 4.9 ± 0.39% | Inhibition Rate (%) on Fatty Degeneration [1]: −11.17% | Collagen accumulation in liver tissue ([2]; vs model group (p<0.01)): significantly reduced | Serum cholesterol level [2]: no effect | Serum low density lipoprotein level [2]: no effect | Collagen accumulation in liver tissue [3]: not inhibited | Serum cholesterol level [3]: no effect | Serum low density lipoprotein level [3]: no effect | Collagen accumulation in liver tissue ([4]; 10 mg/kg intragastric once a day for 28 days, vs model group (p>0.05)): not inhibited
